Legend:
[1] = system: Abca1, Abcg1 and Srebf1 transcript levels; assay: Quantitative PCR of Lxr target genes in SN4741 cells; format: cell-based, mouse; details: SN4741 cells treated 3 h
Procedure: (§1) Quantitative PCR. Total RNA was extracted from SN4741 cells and zebrafish treated with the compounds of interest using the RNeasy Mini Kit (Qiagen), 1 μg was treated with RQ1 RNase-free DNase (Promega) and reverse transcribed using Superscript II Reverse Transcriptase (Invitrogen) and random primers (Invitrogen) (RT+ reaction). Parallel reactions without reverse transcriptase enzyme were done as a control (RT− reaction), and Sybergreen real-time quantitative PCR assays were performed. Expression levels were obtained by normalization with the value of the housekeeping gene encoding actin obtained for every sample in parallel assays.

[2] = system: Islet-1:GFP transgenic zebrafish embryos; format: in vivo
Procedure: as §1
Zebrafish Strain and Mainrenance Zebrafish were raised on a 14/10 h day/night cycle and were kept at 28.5° C. Islet-1:GFP transgenic embryos were obtained via natural spawning and staged in hours or days post fertilization (hpf and dpf) according to Kimmel et al). Embryos older than 24 hpf were treated with 0.03% phenylthiourea (PTU) to inhibit pigmentation. MO injections were performed using splice site specific zebrafish 1xr MO. MO injected embryos were immediately dechorionated and transferred to a 96 well plate and exposed to dimethyl sulfoxide (DMSO) treated or ligand treated medium.
Compound Exposure. Islet-1:GFP embryos were collected by natural mating and immediately (at 1 cell stage) dechorionated and transferred to a 96 well plate. Each of the compounds tested were obtained as 10 mM stock and diluted in embryo medium to a final concentration of 10 μM, and 200 μL was added to each well. DMSO or propan-2-ol treated embryo medium was taken as control. Ligand solutions were replaced every 12 h with fresh ligand solution prepared in PTU treated embryo medium. Embryos were collected at 48 hpf, fixed for 4 h at room temperature with 4% paraformaldehyde and then washed and kept in PBST. Immunocytochemistry was performed using an anti-GFP antibody and fluorescence was viewed and photographed using a Zeiss Axioplan compound microscope and a Zeiss Axiocam digital camera.

[3] = system: Islet1+ oculomotor neurons; assay: In utero injection into the cerebral aqueduct of E11.5 mice, analysis at E13.5; format: in vivo, mouse
Description: Animals for in-utero injections and tissue preparation. Female wild-type CD-1 mice (25-35 g; Charles River Breeding Laboratories) were housed, bred, and treated according to the guidelines of the European Communities Council (directive 86/609/EEC) and the Society for Neuroscience (www.sfr.org), and all experiments were approved by the local ethical committee. Ethical approval for CD-I mice experimentation was granted by Stockholm Norra Djurforsoksetisks Namnd number N1 54/06, N273/11 and N370/09. For embryo analyses, wild type CD-I mice were mated overnight, and noon of the day the plug was considered E0.5. Embryos were dissected out of the uterine horns in ice-cold PBS, fixed in 4% paraformaldehyde (PFA) for 4 h to overnight, cryoprotected in 15-30% sucrose, frozen in Tissue-Tek Optimum Cutting Temperature (OCT) compound (Sakura Fine-Tek) on dry ice, and stored at −80° C. until use. Serial coronal 14-μπι sections of the brain were obtained on a cryostat.
Immunohistochemical analysis of sections. Ten sets of 14 μπι serial coronal sections were cut on a cryostat. No. 1 and 6 sets were subjected to immunohistochemistry. Sections were pre-incubated for 1 h in blocking solution followed by incubation at 4° C. overnight with following primary antibodies: anti-TH (1:750, Pel-Freeze), anti-Islet-1 (1:100; Developmental Studies Hybridoma Bank), anti-cleaved caspase-3 (Aspl175) (1:100; Cell Signaling Technology). After washing, slides were incubated for 1-2 h at room temperature with the appropriate fluorophore-conjugated (Cy2-, Cy3- and Cy5-, 1:300, Jackson Laboratories; Alexa488-, 555-, and 647-, 1:1000, Invitrogen) secondary antibodies. Confocal pictures were taken with a Zeiss LSM5 Exciter or LSM700 microscope.
In utero intraventricular injections. E11.5 pregnant females were deeply anesthetized using Isofluorane (ISOFLO®, Abbott Labs) and the uterine horns were accessed through an abdominal incision. 1 μL of the different cholestenoic acids studied (5 mM) or vehicle solution (isopropanol, 50% v/v) was injected into the cerebral aqueduct. The uterine horns were replaced into the abdominal cavity, which was then closed with sutures. Embryos were analyzed 48 h later.

Lxrβ-LBD = target: T1, Lxrβ-LBD (Homo sapiens, UniProt P55055); assay: LanthaScreen TR-FRET Lxrβ coactivator assay; format: binding
T1 construct: purchased Invitrogen
T1 sequence (P55055 222-460 limits assumed): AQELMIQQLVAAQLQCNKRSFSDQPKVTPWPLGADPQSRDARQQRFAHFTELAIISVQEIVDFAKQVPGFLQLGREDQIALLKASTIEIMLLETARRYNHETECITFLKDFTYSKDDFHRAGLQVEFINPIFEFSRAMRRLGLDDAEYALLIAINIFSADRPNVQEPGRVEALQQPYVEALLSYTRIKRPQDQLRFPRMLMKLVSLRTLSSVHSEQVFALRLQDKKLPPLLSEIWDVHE
Description: Lxrβ Ligand Binding Assay. For Lxrβ ligand binding activity measurement, the applicants used the LANTHASCREEN™ TR-FRET Lxrβ Coactivator Assay (Invitrogen). The assay uses a terbium (Tb)-labeled anti-GST antibody, a fluorescein-labeled coactivator peptide and the Lxrβ-LBD tagged with glutathione-S-transferase (GST). Binding of the agonist/ligand to Lxrβ-LBD causes a conformational change that result in an increase in the affinity of the Lxrβ for the coactivator peptide. The close proximity of the fluorescently labeled coactivator peptide to the Tb-labeled antibody causes an increase in the TR-FRET signal intensity. The TR-FRET ratio of 520/495 was calculated using a Victor multi label reader with an excitation wavelength of 340 nm and emission wavelengths of 520 nm and 495 nm. The activational capacity of potential ligands was tested in a […] polypropylene plate, following the manufacturer's protocol.

[4] = 1 μL of 5 mM injected at E11.5, analysed at E13.5

SMILES | Abca1, Abcg1 and Srebf1 transcript levels [1] | Toxicity to zebrafish embryos ([2]; 10 μM in medium) | Number of Islet+ oculomotor neurons in vivo [3, 4] | Competitor concentration with significant difference (p<0.05) from 10 μM 3β,7α-diHCA alone in TR-FRET Lxrβ coactivator assay (Lxrβ-LBD; added to 10 μM 3β,7α-diHCA) | Competition with 3β,7α-diHCA in TR-FRET Lxrβ coactivator assay (Lxrβ-LBD; increasing concentrations with 3β,7α-diHCA at its most potent concentration) | Islet-1 mRNA and protein level (qPCR, western blot) ([2]; 10 μM) | abca1 mRNA expression in vivo ([2]; 10 μM) | Islet-GFP expression in cranial nerves ([2]; 10 μM, 48 hpf) | Number of Islet1+ cells in cranial nerves (III, IV, V, VII, X) ([2]; 10 μM, 48 hpf) | Islet-GFP levels after lxr morpholino (MO) injection ([2]; 10 μM, lxr MO vs control scrambled MO) | Number of TH+ neurons in vivo [3, 4] | Effect of co-injection on the 3β-HCA-induced reduction of Islet+ oculomotor neurons ([3]; co-injected with 3β-HCA) | TR-FRET induction (coactivator recruitment to Lxrβ-LBD) (Lxrβ-LBD; dose response)
CC(CCC[C@@H](C)[C@H]1CC[C@H]2[C@@H]3CC=C4C[C@@H](O)CC[C@]4(C)[C@H]3CC[C@]12C)C(=O)O (stereo partly drawn) [3β-HCA, 3β-hydroxycholest-5-en-26-oic acid] | induced transcription, but to a lesser extent | deleterious toxic effect which impaired the survival of the fish | the number of Islet+ oculomotor neurons was reduced | ≥ 5 µM | the effect of 3β,7α-diHCA was reduced to that of the latter acids |  |  |  |  |  |  |  | 
CC(CCC[C@@H](C)[C@H]1CC[C@H]2[C@@H]3[C@H](O)C=C4C[C@@H](O)CC[C@]4(C)[C@H]3CC[C@]12C)C(=O)O (stereo partly drawn) [3β,7α-diHCA, 3β,7α-dihydroxycholest-5-en-26-oic acid] | increased transcripts levels to a similar degree as 22R-HC |  | an increase in the number of Islet+ oculomotor neurons |  |  | increase in the level of Islet-1 mRNA and protein | enhanced expression of abca1 | increased Islet-GFP expression | no significant effect on the number of Islet1+ cells | abolished the in vivo increase in Islet-GFP levels | not of TH+ neurons | this effect was eliminated by co-injection of 3β,7α-diHCA | induced FRET in a dose dependent manner to a higher degree than the other acids
